What was measured:
Format in all cases: in vivo
monochoria (Mo) [1] = test: Test Example 1: herbicidal effects by flooded paddy field treatment; set-up: herbicidal effects, Mo (monochoria):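 0-5 growth inhibition grade; 5 = over 90%; 4 = 70-90%; 3 = 50-70%; 2 = 30-50%; 1 = 10-30%; 0 = under 10%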; conditions: for Herbicidal effect index, Mo: dose 100 gai/10a, examined on 21st day after treatment, index 0-5 per Table 44; for herbicidal effects, Mo (monochoria): dose 100 g active ingredient per 10 ares, examined on the 21st day after treatment, standards of Table 44;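 for Herbicidal effect index, Mo: 0-5 growth inhibition grade; 5 = over 90%; 4 = 70-90%; 3 = 50-70%; 2 = 30-50%; 1 = 10-30%; 0 = under 10%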
How it was run: (§1)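 Seeds sown in puddled paddy soil and flooded to 3 cm. Next day, a water-diluted wettable powder was dripped onto the water surface at 100 g active ingredient per 10 ares. Plants were grown in a greenhouse, and herbicidal effect was scored against a rating standard 21 days after treatment.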

barnyard grass (Eo) [2] = test: Test Example 4: selectivity for a crop plant by flooded paddy field treatment; set-up: scale not given here; conditions: for Eo (herbicidal effect index): barnyard grass, dose 25 gai/10a, 21st day after treatment, index per Table 44; for Eo (herbicidal effects, index): dose 25 g active ingredient per 10 ares, examined on the 21st day after treatment
How it was run: (§2)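 Paddled paddy soil in pots sown with barnyard grass and monochoria, with second-leaf-stage rice transplanted, under 3 cm of water. Next day a diluted wettable powder was dripped onto the water at 25 g active ingredient per 10 ares; effects scored on a rating scale 21 days later in a greenhouse.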

monochoria (Mo) [3] = test: as above; set-up: scale not given here; conditions: for Mo (herbicidal effect index): monochoria, dose 25 gai/10a, 21st day after treatment, index per Table 44; for Mo (herbicidal effects, index): dose 25 g active ingredient per 10 ares, examined on the 21st day after treatment
How it was run: as §2

rice (Or) = test: as above; set-up: scale not given here; conditions: rice transplanted at second leaf stage; for Or (herbicidal effect index on crop): dose 25 gai/10a, 21st day after treatment, index per Table 44; for Or (effect on crop plant rice, index): dose 25 g active ingredient per 10 ares, examined on the 21st day after treatment
How it was run: as §2

barnyard grass (Eo) [4] = test: Test Example 1: herbicidal effects by flooded paddy field treatment; set-up: herbicidal effects, Eo (barnyard grass):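 0-5 growth inhibition grade; 5 = over 90%; 4 = 70-90%; 3 = 50-70%; 2 = 30-50%; 1 = 10-30%; 0 = under 10%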; conditions: for Herbicidal effect index, Eo: dose 100 gai/10a, examined on 21st day after treatment, index 0-5 per Table 44; for herbicidal effects, Eo (barnyard grass): dose 100 g active ingredient per 10 ares, examined on the 21st day after treatment, standards of Table 44;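 for Herbicidal effect index, Eo: 0-5 growth inhibition grade; 5 = over 90%; 4 = 70-90%; 3 = 50-70%; 2 = 30-50%; 1 = 10-30%; 0 = under 10%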
How it was run: as §1

barnyard grass (Ec) = test: Test Example 2: herbicidal effects by upland soil treatment; set-up: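 0-5 growth inhibition grade; 5 = over 90%; 4 = 70-90%; 3 = 50-70%; 2 = 30-50%; 1 = 10-30%; 0 = under 10%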; conditions: dose 100 g active ingredient per 10 ares, examined on the 21st day after treatment, standards of Table 44
How it was run: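 Pre-emergence test: barnyard grass and green foxtail sown in upland soil, then soil surface sprayed with wettable-powder formulation at 100 g active ingredient per 10 ares (100 l per 10 ares). Grown in greenhouse; herbicidal effect scored on a rating scale 21 days after treatment.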

green foxtail (Se) = test: as above; conditions: dose 100 g active ingredient per 10 ares, examined on the 21st day after treatment, standards of Table 44;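 note: 0-5 growth inhibition grade; 5 = over 90%; 4 = 70-90%; 3 = 50-70%; 2 = 30-50%; 1 = 10-30%; 0 = under 10%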
Procedure: In a 80 cm^2 plastic pot, upland soil was filled, and seeds of barnyard grass (Ec) and green foxtail (Se) were sown and covered with soil. A wettable powder prepared in accordance with Formulation Example 1 was diluted with water and uniformly applied to the soil surface by means of a small size spray at a rate of 100 l per 10 ares, so that the dose of the active ingredient would be 100 g per 10 ares. Thereafter, cultivation was carried out in a green house, and on the 21st day after the treatment, the herbicidal effects were examined in accordance with the standards as identified in Table 44.

CC(Oc1ccc(Cl)cc1)C(=O)N(C)C(c1cncnc1C(F)(F)F)C(C)C (mixture of isomers) [Compound 1-116]
0: Or (herbicidal effect index on crop) (rice (Or))
5: Herbicidal effect index, Mo (monochoria (Mo) [1]) | Eo (herbicidal effect index) (barnyard grass (Eo) [2]) | Mo (herbicidal effect index) (monochoria (Mo) [3]) | Herbicidal effect index, Eo (barnyard grass (Eo) [4]) | herbicidal effects, Ec (barnyard grass) (barnyard grass (Ec))
4: herbicidal effects, Se (green foxtail) (green foxtail (Se))

CC(C)C(c1cncnc1C(F)(F)F)N(C)C(=O)Cc1ccc(Cl)c(F)c1 (racemic) [1-180]
5: herbicidal effects, Mo (monochoria) (monochoria (Mo) [1]) | Eo (herbicidal effect index) (barnyard grass (Eo) [2]) | Mo (herbicidal effect index) (monochoria (Mo) [3]) | herbicidal effects, Eo (barnyard grass) (barnyard grass (Eo) [4]) | herbicidal effects, Ec (barnyard grass) (barnyard grass (Ec)) | herbicidal effects, Se (green foxtail) (green foxtail (Se))
1: Or (herbicidal effect index on crop) (rice (Or))

CCCN(C(=O)Cc1ccc(F)cc1)C(c1cncnc1C(F)(F)F)C(C)C (racemic) [1-181]
1: Or (herbicidal effect index on crop) (rice (Or))
5: herbicidal effects, Mo (monochoria) (monochoria (Mo) [1]) | Eo (herbicidal effect index) (barnyard grass (Eo) [2]) | Mo (herbicidal effect index) (monochoria (Mo) [3]) | herbicidal effects, Eo (barnyard grass) (barnyard grass (Eo) [4]) | herbicidal effects, Ec (barnyard grass) (barnyard grass (Ec)) | herbicidal effects, Se (green foxtail) (green foxtail (Se))

CC(C)C(c1cncnc1C(F)(F)F)N(C)C(=O)CSc1ccccc1 (racemic) [1-182]
5: herbicidal effects, Mo (monochoria) (monochoria (Mo) [1]) | Eo (herbicidal effect index) (barnyard grass (Eo) [2]) | Mo (herbicidal effect index) (monochoria (Mo) [3]) | herbicidal effects, Eo (barnyard grass) (barnyard grass (Eo) [4]) | herbicidal effects, Ec (barnyard grass) (barnyard grass (Ec)) | herbicidal effects, Se (green foxtail) (green foxtail (Se))
1: Or (herbicidal effect index on crop) (rice (Or))

CC(c1cncnc1C(C)(C)C)N(C)C(=O)Cc1ccc(Cl)cc1 (racemic) [1-190]
5: herbicidal effects, Mo (monochoria) (monochoria (Mo) [1]) | Eo (herbicidal effect index) (barnyard grass (Eo) [2]) | Mo (herbicidal effect index) (monochoria (Mo) [3]) | herbicidal effects, Eo (barnyard grass) (barnyard grass (Eo) [4])
4: herbicidal effects, Ec (barnyard grass) (barnyard grass (Ec)) | herbicidal effects, Se (green foxtail) (green foxtail (Se))
0: Or (herbicidal effect index on crop) (rice (Or))

Cc1ccc(CC(=O)N(C)C(c2ccccc2)c2cncnc2C(F)(F)F)cc1 (racemic) [1-197]
5: herbicidal effects, Mo (monochoria) (monochoria (Mo) [1]) | Eo (herbicidal effect index) (barnyard grass (Eo) [2]) | Mo (herbicidal effect index) (monochoria (Mo) [3]) | herbicidal effects, Eo (barnyard grass) (barnyard grass (Eo) [4]) | herbicidal effects, Ec (barnyard grass) (barnyard grass (Ec)) | herbicidal effects, Se (green foxtail) (green foxtail (Se))
0: Or (herbicidal effect index on crop) (rice (Or))

CN(C(=O)Cc1ccc(Cl)cc1)C(c1cccs1)c1cncnc1C(F)(F)F (racemic) [1-200]
5: herbicidal effects, Mo (monochoria) (monochoria (Mo) [1]) | Eo (herbicidal effect index) (barnyard grass (Eo) [2]) | Mo (herbicidal effect index) (monochoria (Mo) [3]) | herbicidal effects, Eo (barnyard grass) (barnyard grass (Eo) [4]) | herbicidal effects, Ec (barnyard grass) (barnyard grass (Ec)) | herbicidal effects, Se (green foxtail) (green foxtail (Se))
1: Or (herbicidal effect index on crop) (rice (Or))

CN(C(=O)Cc1ccccc1)C(c1ccc(F)cc1)c1cncnc1C(F)(F)F (racemic) [1-217]
1: Or (herbicidal effect index on crop) (rice (Or))
5: herbicidal effects, Mo (monochoria) (monochoria (Mo) [1]) | Eo (herbicidal effect index) (barnyard grass (Eo) [2]) | Mo (herbicidal effect index) (monochoria (Mo) [3]) | herbicidal effects, Eo (barnyard grass) (barnyard grass (Eo) [4]) | herbicidal effects, Ec (barnyard grass) (barnyard grass (Ec)) | herbicidal effects, Se (green foxtail) (green foxtail (Se))

CN(C(=O)Cc1ccc(Cl)cc1)C(c1ccc(F)cc1)c1cncnc1C(F)(F)F (racemic) [1-219]
1: Or (herbicidal effect index on crop) (rice (Or))
5: herbicidal effects, Mo (monochoria) (monochoria (Mo) [1]) | Eo (herbicidal effect index) (barnyard grass (Eo) [2]) | Mo (herbicidal effect index) (monochoria (Mo) [3]) | herbicidal effects, Eo (barnyard grass) (barnyard grass (Eo) [4]) | herbicidal effects, Ec (barnyard grass) (barnyard grass (Ec)) | herbicidal effects, Se (green foxtail) (green foxtail (Se))

Cc1ccc(C(c2cncnc2C(F)(F)F)N(C)C(=O)Cc2ccccc2)cc1 (racemic) [1-225]
0: Or (herbicidal effect index on crop) (rice (Or))
5: herbicidal effects, Mo (monochoria) (monochoria (Mo) [1]) | Eo (herbicidal effect index) (barnyard grass (Eo) [2]) | Mo (herbicidal effect index) (monochoria (Mo) [3]) | herbicidal effects, Eo (barnyard grass) (barnyard grass (Eo) [4]) | herbicidal effects, Ec (barnyard grass) (barnyard grass (Ec)) | herbicidal effects, Se (green foxtail) (green foxtail (Se))

Cc1ccc(C(c2cncnc2C(F)(F)F)N(C)C(=O)Cc2ccc(F)cc2)cc1 (racemic) [1-226]
5: herbicidal effects, Mo (monochoria) (monochoria (Mo) [1]) | Eo (herbicidal effect index) (barnyard grass (Eo) [2]) | Mo (herbicidal effect index) (monochoria (Mo) [3]) | herbicidal effects, Eo (barnyard grass) (barnyard grass (Eo) [4]) | herbicidal effects, Ec (barnyard grass) (barnyard grass (Ec))
4: herbicidal effects, Se (green foxtail) (green foxtail (Se))
1: Or (herbicidal effect index on crop) (rice (Or))

Cc1ccc(CC(=O)N(C)C(c2ccc(C)cc2)c2cncnc2C(F)(F)F)cc1 (racemic) [1-228]
5: herbicidal effects, Mo (monochoria) (monochoria (Mo) [1]) | Eo (herbicidal effect index) (barnyard grass (Eo) [2]) | Mo (herbicidal effect index) (monochoria (Mo) [3]) | herbicidal effects, Eo (barnyard grass) (barnyard grass (Eo) [4]) | herbicidal effects, Ec (barnyard grass) (barnyard grass (Ec)) | herbicidal effects, Se (green foxtail) (green foxtail (Se))
0: Or (herbicidal effect index on crop) (rice (Or))

COc1ccc(CC(=O)N(C)C(c2cncnc2C(F)(F)Cl)C(C)C)cc1 (racemic) [Compound 1-16]
1: Or (effect on crop plant rice, index) (rice (Or))
5: Herbicidal effect index, Mo (monochoria (Mo) [1]) | Eo (herbicidal effects, index) (barnyard grass (Eo) [2]) | Mo (herbicidal effects, index) (monochoria (Mo) [3]) | Herbicidal effect index, Eo (barnyard grass (Eo) [4]) | herbicidal effects, Se (green foxtail) (green foxtail (Se))
4: herbicidal effects, Ec (barnyard grass) (barnyard grass (Ec))

CC(C)C(c1cncnc1C(F)(F)Cl)N(C)C(=O)Sc1ccccc1 (racemic) [Compound 1-17]
4: herbicidal effects, Ec (barnyard grass) (barnyard grass (Ec)) | herbicidal effects, Se (green foxtail) (green foxtail (Se))
1: Or (effect on crop plant rice, index) (rice (Or))
5: Herbicidal effect index, Mo (monochoria (Mo) [1]) | Eo (herbicidal effects, index) (barnyard grass (Eo) [2]) | Mo (herbicidal effects, index) (monochoria (Mo) [3]) | Herbicidal effect index, Eo (barnyard grass (Eo) [4])

CC(C)C(c1cncnc1C(F)(F)F)N(C)C(=O)Cc1ccccc1Cl (racemic) [Compound 1-20]
1: Or (effect on crop plant rice, index) (rice (Or))
5: Herbicidal effect index, Mo (monochoria (Mo) [1]) | Eo (herbicidal effects, index) (barnyard grass (Eo) [2]) | Mo (herbicidal effects, index) (monochoria (Mo) [3]) | Herbicidal effect index, Eo (barnyard grass (Eo) [4]) | herbicidal effects, Ec (barnyard grass) (barnyard grass (Ec)) | herbicidal effects, Se (green foxtail) (green foxtail (Se))

CN(C(=O)Cc1ccccc1)C(c1cncnc1C(F)(F)F)C1CC1 (racemic) [Compound 1-34]
5: Herbicidal effect index, Mo (monochoria (Mo) [1]) | Eo (herbicidal effects, index) (barnyard grass (Eo) [2]) | Mo (herbicidal effects, index) (monochoria (Mo) [3]) | Herbicidal effect index, Eo (barnyard grass (Eo) [4]) | herbicidal effects, Ec (barnyard grass) (barnyard grass (Ec)) | herbicidal effects, Se (green foxtail) (green foxtail (Se))
1: Or (effect on crop plant rice, index) (rice (Or))

CN(C(=O)Cc1ccc(F)cc1)C(c1ccccc1)c1cncnc1C(F)(F)F (racemic) [Compound 1-36]
5: Herbicidal effect index, Mo (monochoria (Mo) [1]) | Eo (herbicidal effects, index) (barnyard grass (Eo) [2]) | Mo (herbicidal effects, index) (monochoria (Mo) [3]) | Herbicidal effect index, Eo (barnyard grass (Eo) [4]) | herbicidal effects, Ec (barnyard grass) (barnyard grass (Ec)) | herbicidal effects, Se (green foxtail) (green foxtail (Se))
1: Or (effect on crop plant rice, index) (rice (Or))

CC(C)C(c1cncnc1C(F)F)N(C)C(=O)Cc1ccc(Cl)cc1 (racemic) [Compound 1-165]
5: herbicidal effects, Mo (monochoria) (monochoria (Mo) [1]) | herbicidal effects, Eo (barnyard grass) (barnyard grass (Eo) [4]) | herbicidal effects, Ec (barnyard grass) (barnyard grass (Ec)) | herbicidal effects, Se (green foxtail) (green foxtail (Se))

Cc1ccc(NC(=O)N(C)C(c2cncnc2C(F)(F)Cl)C(C)C)cc1 (stereo not shown) [Compound 1-37, N-methyl-N-[2-methyl-1-(4-chlorodifluoromethylpyrimidin-5-yl)propyl]-N′-(4-methylphenyl)urea]
5: Herbicidal effect index, Mo (monochoria (Mo) [1]) | Herbicidal effect index, Eo (barnyard grass (Eo) [4]) | herbicidal effects, Ec (barnyard grass) (barnyard grass (Ec)) | herbicidal effects, Se (green foxtail) (green foxtail (Se))

Source: US6806230B1, “Pyrimidine derivatives and herbicides containing them” (Kumiai Chemical Industry Co., Ltd., priority 1999, dated 2004)
